Our source for the IC50 values is patent US8486977B2, “1,2,3-triazole derivatives for use as stearoyl-CoA desaturase inhibitors” (GlaxoSmithKline LLC, priority 2007, dated 2013).

Each structure is given as a SMILES string.

The target of this test is T1, SCD (Rattus norvegicus, UniProt P07308).
T1 construct: SCD-containing rat microsomes (2 μg protein); from tissue
T1 sequence (P07308 1-358): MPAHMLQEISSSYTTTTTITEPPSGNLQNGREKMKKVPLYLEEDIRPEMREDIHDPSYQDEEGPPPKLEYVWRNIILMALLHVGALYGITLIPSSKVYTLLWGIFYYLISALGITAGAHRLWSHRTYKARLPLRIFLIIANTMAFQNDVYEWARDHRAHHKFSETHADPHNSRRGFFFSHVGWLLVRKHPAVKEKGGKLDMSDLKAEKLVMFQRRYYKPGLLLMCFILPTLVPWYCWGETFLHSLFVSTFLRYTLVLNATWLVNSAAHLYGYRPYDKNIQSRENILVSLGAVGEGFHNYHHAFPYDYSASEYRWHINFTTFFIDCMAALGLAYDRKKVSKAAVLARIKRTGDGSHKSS
The experiment in a line: in vitro assay for SCD activity based on production of [3H]H2O. It counts as biochemical. Conditions: SCD-containing rat microsomes (2 μg protein), [9,10-3H] stearoyl Coenzyme A 1 μM, 6 min incubation. The procedure:
The compounds of the present invention may be analysed in vitro for SCD activity using an assay based on the production of [^3H]H2O, which is released during the enzyme-catalyzed generation of the monounsaturated fatty acyl CoA product. The assay is performed in a 96-well filtration plates. The titrated substrate used in the assay is the [9,10-^3H] stearoyl Coenzyme A. After incubation for 6 minutes of SCD-containing rat microsomes (2 μg protein) and substrate (1 μM), the labelled fatty acid acyl-CoA species and microsomes are absorbed with charcoal and separated from [^3H]H2O by centrifugation. The formation of [^3H]H2O is used as a measure of SCD activity. Compounds at concentrations starting at 10 μM to 0.1 nM or vehicle (DMSO) are preincubated for 5 minutes with the microsomes before addition of the substrate. The concentration-responses are fitted with sigmoidal curves to obtain IC50 values.
For `COC(=O)c1cccc(NC(=O)c2nnn(Cc3ccc(Cl)c(Cl)c3)c2C)c1C` [Methyl 3-[({1-[(3,4-dichlorophenyl)methyl]-5-methyl-1H-1,2,3-triazol-4-yl}carbonyl)amino]-2-methylbenzoate], the concentration for half-maximal inhibition (IC50) (in general, the midpoint of a concentration-inhibition curve) was greater than 10 µM.

As to `COC(=O)c1cc(NC(=O)c2nnn(Cc3ccc(Cl)c(Cl)c3)c2C)ccc1OC` [Methyl 5-[({1-[(3,4-dichlorophenyl)methyl]-5-methyl-1H-1,2,3-triazol-4-yl}carbonyl)amino]-2-(methyloxy)benzoate], the IC50 is greater than 10 µM. The result for `CNC(=O)c1cccc(NC(=O)c2nnn(Cc3ccc(Cl)c(Cl)c3)c2C)c1C` [1-[(3,4-dichlorophenyl)methyl]-5-methyl-N-{2-methyl-3-[(methylamino)carbonyl]phenyl}-1H-1,2,3-triazole-4-carboxamide] reads greater than 10 µM. In turn, `Cc1c(C(=O)Nc2cc(C(=O)O)cc(C(=O)O)c2)nnn1Cc1cccc(Cl)c1` [5-[({1-[(3-Chlorophenyl)methyl]-5-methyl-1H-1,2,3-triazol-4-yl}carbonyl)amino]-1,3-benzenedicarboxylic acid] yielded an IC50 greater than 10 µM.
